Test results reported in publication PMC10631261 (Chemical Science, 2023).
Read-outs that look alike come from different tables or passages of the source.

Assays:
PHD2 = PHD2 (Homo sapiens, UniProt Q9GZT9); assay: biochemical
Procedure: (§1) 3. Biochemical procedures
(§2) Protein production and purification
(§3) PAGE analysis) according to established procedures.
(§4) FIH, PHD2, AspH, JMJD5 and KDM4A inhibition assays
(§5) The in vitro FIH,1, 2 PHD2,1 AspH,38 JMJD536 and KDM4A39 inhibition assays were performed as […]
(§6) KDM4A). Synthetic peptide substrates were used: HIF-1α C-terminal transactivation domain fragment […]
(§7) H3Lys9 bearing three methyl groups at the N ϵ position, H3Lys4 substituted by an Ala and H3Lys14 substituted by an Ile residue) for KDM4A.39 Peptides were prepared as C-terminal amides by GL Biochem (Shanghai) Ltd. Peptide hydroxylation in the case of FIH, PHD2, AspH and JMJD5 (+16 Da mass shift) or peptide demethylation in the case of KDM4A ( -14 Da mass shift) was monitored by SPE-MS. […]

AspH = AspH (Homo sapiens, UniProt Q12797); assay: biochemical
Excerpt: (§8) To investigate the potential of BNS for selective FIH inhibition, its selectivity was investigated with respect to other 2OG-dependent protein oxidising enzymes, that is PHD2, Jumonji-C domain-containing protein 5 (JMJD5), aspartate/asparagine-β-hydroxylase (AspH) and KDM4A, using reported SPE-MS inhibition assays.[58,61,69,70] In addition to PHD2 and KDM4A, we included AspH and JMJD5 in our selectivity studies, because AspH, like FIH, catalyses protein aspartate- and asparagine-residue hydroxylation (although in epidermal growth factor-like domains),[71,72] and because JMJD5 is structurally closely related to FIH.[73,74]
as §1, §2, §3, §4, §5, §6, §7

JMJD5 = JMJD5 (Homo sapiens, UniProt Q8N371); assay: biochemical; settings: read-out: JMJD5 IC50
Excerpt: as §8, §1, §2, §3, §4, §5, §6, §7

KDM4A = KDM4A (Homo sapiens, UniProt O75164); assay: biochemical; assay type: biochemical
Excerpt: as §8, §1, §2, §3, §4, §5, §6, §7

FIH [1] = target: T1, FIH (Homo sapiens, UniProt Q9NWT6); assay: SPE-MS FIH inhibition assay; assay type: biochemical; settings: for FIH inhibition potency relative to 2,4-PDCA (more potent): IC50 comparison with 2,4-PDCA
T1 construct: made in house
Procedure: as §2, §3, §4, §5, §6, §7

EGLN3 [2] = assay: qRT-PCR of EGLN3 expression in 786-O cells; assay type: cell-based; settings: VHL-deficient 786-O cells
Procedure: (§9) 4. Methods for cell studies […]
(§10) in Minimum Essential Medium (MEM, GIBCO) with 10% fetal bovine serum (FBS, BI), 100 U/mL penicillin and 100 μg/mL streptomycin (1 × P/S, NCM Biotech). […]
(§11) and 100 μg/mL streptomycin (1 × P/S, NCM Biotech).
(§12) Quantitative PCR Analysis of Gene Expression […]
(§13) treated with vehicle (DMSO) or an inhibitor (at the concentrations indicated) for 12 h. Total RNA was isolated from cells and tissues using Trizol regents (Vazyme, China). 1 μg RNA was used for reverse transcription using HiScript III RT SuperMix for qPCR (Vazyme, China). cDNAs were amplified in a ChamQ Universal SYBR qPCR Master Mix (Vazyme, China). Quantitative PCR (qPCR) was performed on […]
(§14) a ABI QuantStudio 3 system.
(§15) The relative amount of mRNA was calculated after
(§16) 3T3-L1 derived adipocytes. […]

EGLN3 [3] = assay: qRT-PCR of EGLN3 expression in Hep3B cells; assay type: cell-based, human; settings: for increase of EGLN3 expression relative to DMSO: 50 μM, 12 h, qRT-PCR
Procedure: as §9, §10, §11, §12, §13, §14, §15, §16

SLC2A1 = assay: qRT-PCR of SLC2A1 expression in Hep3B cells; assay type: cell-based, human; settings: for increase of SLC2A1 levels: qPCR, relative to DMSO
Procedure: as §9, §10, §11, §12, §13, §14, §15, §16

CA9 = assay: qRT-PCR of CA9 expression in Hep3B cells; assay type: cell-based, human; settings: for upregulation of CA9: qPCR, relative to DMSO
Procedure: as §9, §10, §11, §12, §13, §14, §15, §16

EPO = assay: qRT-PCR of EPO expression in Hep3B cells; assay type: cell-based, human; settings: for upregulation of EPO: qPCR, relative to DMSO
Procedure: as §9, §10, §11, §12, §13, §14, §15, §16

FIH [4] = target: T1, FIH; settings: ESI Table S1; ref 19 (ESI); cited from earlier work
[5] = system: 3T3-L1 derived adipocytes; assay: Cellular triglyceride (TG) colorimetric assay; assay type: cell-based; settings: 100 μM
Procedure: as §9, §10
and 100 μg/mL streptomycin (1 × P/S, NCM Biotech). […]
3T3-L1 derived adipocytes.
10% newborn calf serum (NCS, GIBCO), 100 U/mL penicillin and 100 μg/mL streptomycin (1 × P/S, NCM […]
The 3T3-L1 cells were strictly subcultured before they
Subcultures of 3T3 -L1 cells were routinely cultured in DMEM medium containing 10% NCS for two days, and then the cells were cultured in DMEM containing 10% FBS, 0.5 mM 3 -isobutyl-1-methylxanthine, 1 μM dexamethasone, 10 μg/mL insulin and 2 μM rosiglitazone for another two days. Subsequently, the cells were cultured in DMEM containing 10% FBS and 10 μg/mL insulin for two days. After these procedures, the cells were maintained in […]
To investigate the effect of inhibitors on adipocytes, 3T3-L1-derived adipocytes were treated with vehicle (DMSO) or with an inhibitor (at the concentrations indicated) for 48 h. […]
Cellular TG level assay for 3T3 -L1 derived adipocytes.
The 3T3-L1-derived adipocytes were washed with PBS, then the cells were lysed. And then, the cellular TG level was determined by using a cellular triglyceride assay kit (Applygen, China).
Oil Red O staining for 3T3-L1 derived adipocytes.

[6] = IC50 comparison with compound 20

T1 sequence (Q9NWT6 whole entry): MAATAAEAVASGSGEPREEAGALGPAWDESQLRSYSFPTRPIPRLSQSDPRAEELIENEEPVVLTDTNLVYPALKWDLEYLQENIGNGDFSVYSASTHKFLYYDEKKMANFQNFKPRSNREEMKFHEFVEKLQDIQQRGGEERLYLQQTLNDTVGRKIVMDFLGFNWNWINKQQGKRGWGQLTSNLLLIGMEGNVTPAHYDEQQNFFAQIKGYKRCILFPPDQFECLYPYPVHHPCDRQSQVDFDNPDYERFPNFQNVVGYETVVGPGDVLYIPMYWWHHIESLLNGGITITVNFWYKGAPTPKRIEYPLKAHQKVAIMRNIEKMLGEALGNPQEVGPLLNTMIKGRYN
Sequence of AspH (Q12797 315-758): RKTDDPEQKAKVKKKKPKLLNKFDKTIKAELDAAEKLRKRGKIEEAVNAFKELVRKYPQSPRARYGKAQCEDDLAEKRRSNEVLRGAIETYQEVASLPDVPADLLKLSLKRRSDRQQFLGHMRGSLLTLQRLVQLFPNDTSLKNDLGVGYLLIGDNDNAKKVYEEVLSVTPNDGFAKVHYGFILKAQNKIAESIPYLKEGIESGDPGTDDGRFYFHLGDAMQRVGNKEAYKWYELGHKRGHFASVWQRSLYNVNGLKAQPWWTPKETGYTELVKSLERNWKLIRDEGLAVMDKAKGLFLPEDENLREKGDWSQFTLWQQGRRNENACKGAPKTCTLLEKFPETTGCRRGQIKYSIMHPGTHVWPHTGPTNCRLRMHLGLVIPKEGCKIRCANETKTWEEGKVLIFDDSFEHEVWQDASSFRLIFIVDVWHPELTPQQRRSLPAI
Sequence of KDM4A (O75164 1-359): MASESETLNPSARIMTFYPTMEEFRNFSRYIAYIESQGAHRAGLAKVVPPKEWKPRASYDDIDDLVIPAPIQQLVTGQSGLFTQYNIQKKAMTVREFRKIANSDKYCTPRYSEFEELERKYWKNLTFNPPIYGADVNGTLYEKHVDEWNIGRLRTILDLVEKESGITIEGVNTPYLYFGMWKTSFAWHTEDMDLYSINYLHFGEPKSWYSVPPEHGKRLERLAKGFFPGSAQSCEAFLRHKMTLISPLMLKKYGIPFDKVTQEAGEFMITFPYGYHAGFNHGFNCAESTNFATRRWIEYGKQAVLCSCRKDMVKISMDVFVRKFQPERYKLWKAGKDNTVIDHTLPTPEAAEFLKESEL
Sequence of JMJD5 (Q8N371 whole entry): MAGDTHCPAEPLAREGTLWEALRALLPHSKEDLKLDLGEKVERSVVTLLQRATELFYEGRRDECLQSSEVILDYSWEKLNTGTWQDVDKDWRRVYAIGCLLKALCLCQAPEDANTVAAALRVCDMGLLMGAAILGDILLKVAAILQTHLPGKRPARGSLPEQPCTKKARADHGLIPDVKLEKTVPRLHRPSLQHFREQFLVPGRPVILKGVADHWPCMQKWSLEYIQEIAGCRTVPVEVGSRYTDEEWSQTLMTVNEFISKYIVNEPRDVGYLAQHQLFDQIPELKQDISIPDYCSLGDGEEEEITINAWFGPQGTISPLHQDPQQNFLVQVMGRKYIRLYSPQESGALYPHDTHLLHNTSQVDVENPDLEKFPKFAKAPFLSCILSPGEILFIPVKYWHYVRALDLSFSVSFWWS
Sequence of PHD2 (Q9GZT9 181-426): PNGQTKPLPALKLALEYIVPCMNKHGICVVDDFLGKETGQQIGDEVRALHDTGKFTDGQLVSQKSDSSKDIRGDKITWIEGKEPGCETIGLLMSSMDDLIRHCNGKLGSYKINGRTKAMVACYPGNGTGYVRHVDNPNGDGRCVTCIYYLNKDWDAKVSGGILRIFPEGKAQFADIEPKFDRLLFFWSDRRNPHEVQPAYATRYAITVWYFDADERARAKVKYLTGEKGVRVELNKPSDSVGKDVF

SMILES	IC50 (PHD2)	IC50 (AspH)	IC50 (JMJD5)	IC50 (KDM4A)	melting point	IC50 (FIH [1])	further results
O=C(O)Cc1csc(=NC(=O)C2CCN(S(=O)(=O)C3CCCC3)C2)n1O (stereo not drawn) [compound 43]	9.9 ± 0.5 µM	35.5 ± 3.2 µM	17.4 ± 6 µM	> 100 µM	177 to 180 °C	810 ± 180 nM	–
O=C(O)Cc1cs/c(=N\C(=O)CNS(=O)(=O)c2ccccc2)n1O [compound 19]	15.5 ± 4.6 µM	3.1 ± 0.4 µM	12 ± 0.6 µM	17.4 ± 0.2 µM	178 to 180 °C	3700 ± 1500 nM	loss in FIH inhibition relative to 20 (FIH [1]; [6]): ~4 fold
O=C(O)Cc1csc(=NC(=O)C2CCN(S(=O)(=O)c3ccc(Oc4ccccc4)cc3)C2)n1O (stereo not drawn) [compound 39]	3.1 ± 0.2 µM	29.8 ± 4.3 µM	8.6 ± 0.2 µM	> 100 µM	179 to 183 °C	290 ± 30 nM	effect on EGLN3 gene expression (EGLN3 [2]): upregulation of EGLN3; increase of EGLN3 expression relative to DMSO (EGLN3 [3]): ~2.5 fold; EGLN3 upregulation on co-administration with FG-4592 relative to compound alone (EGLN3 [3]): no additional effect; FIH inhibition potency relative to 2,4-PDCA (more potent) (FIH [1]): ~10 fold; selectivity for FIH inhibition over AspH inhibition (FIH [1]; as judged by IC50 values): > 100 fold; selectivity for FIH inhibition over KDM4A inhibition (FIH [1]; as judged by IC50 values): > 300 fold
O=C(O)Cc1csc(=NC(=O)C2CCN(S(=O)(=O)c3ccc(-c4ccccc4)cc3)C2)n1O (stereo not drawn) [compound 38]	3.1 ± 0.1 µM	30.2 ± 10.9 µM	31.9 ± 2 µM	> 100 µM	180 to 183 °C	260 ± 10 nM	effect on EGLN3 gene expression (EGLN3 [2]): upregulation of EGLN3; increase of EGLN3 expression relative to DMSO (EGLN3 [3]): ~2.5 fold; EGLN3 upregulation on co-administration with FG-4592 relative to compound alone (EGLN3 [3]): greater increase; FIH inhibition potency relative to 2,4-PDCA (more potent) (FIH [1]): ~10 fold; selectivity for FIH inhibition over AspH inhibition (FIH [1]; as judged by IC50 values): > 100 fold; selectivity for FIH inhibition over KDM4A inhibition (FIH [1]; as judged by IC50 values): > 300 fold
Cc1nc(C(=O)NCC(=O)O)c(O)c2ccc(Oc3ccccc3)cc12 [FG-4592]	–	–	–	–	–	–	increase of SLC2A1 levels (SLC2A1): ~4 fold; upregulation of CA9 (CA9): ~8 fold; upregulation of EPO (EPO): ~7 fold; IC50 (FIH [4]): > 100 µM; effect on Hep3B EGLN3 levels (EGLN3 [3]; compound alone): no effect
O=C(O)Cc1cs/c(=N\C(=O)CCS(=O)(=O)c2ccccc2)n1O (hydrate or solvate) [compound 15]	–	–	–	–	182 to 184 °C	–	–
COC(=O)C(=O)N[C@H](Cc1ccccc1)C(=O)OC [DM-NOFD, dimethyl N-oxalyl-D-phenylalanine]	–	–	–	–	–	–	increase of SLC2A1 levels (SLC2A1): ~1.3 fold; SLC2A1 gene expression in combination with FG-4592 (SLC2A1; with FG-4592): no synergistic effect; effect on TG levels [5]: no effect; upregulation of CA9 (CA9): no response; CA9 levels in combination with FG-4592 compared with FG-4592 alone (CA9; with FG-4592): increase; effect on EGLN3 gene expression (EGLN3 [2]): upregulation of EGLN3; upregulation of EPO (EPO): no response; EPO levels in combination with FG-4592 compared with FG-4592 alone (EPO; with FG-4592, to a lesser extent than CA9): increase; increase of EGLN3 expression relative to DMSO (EGLN3 [3]): ~1.8 fold; EGLN3 upregulation on co-administration with FG-4592 relative to compound alone (EGLN3 [3]): no additional effect
O=C(O)Cc1cs/c(=N\C(=O)CNC(=O)c2ccccc2)n1O (hydrate or solvate) [compound 16]	–	–	–	–	181 to 183 °C	–	–
CC1(C(=O)/N=c2\scc(CC(=O)O)n2O)CN(S(=O)(=O)c2ccccc2)C1 [compound 25]	33.5 ± 1 µM	> 100 µM	32.6 ± 6.7 µM	> 100 µM	156 to 158 °C	1200 ± 200 nM	–
CC(C(=O)O)c1cs/c(=N\C(=O)CS(=O)(=O)c2ccccc2)n1O (stereo not drawn) (hydrate or solvate) [compound 6]	–	–	–	–	204 to 207 °C	–	–
O=C(O)Cc1csc(=NC(=O)C2CCN(S(=O)(=O)c3ccccc3)C2)n1O (stereo not drawn) [compound 26]	12.4 ± 0.8 µM	37.8 ± 11.3 µM	12.5 ± 1 µM	> 100 µM	185 to 187 °C	500 ± 20 nM	selectivity for FIH with respect to PHD2, JMJD5, AspH and KDM4A inhibition (FIH [1]): > 25 fold; increase of FIH inhibition potency relative to 20 (FIH [1]; [6]): ~2 fold; selectivity for FIH inhibition over AspH inhibition (FIH [1]; as judged by IC50 values): ~75 fold; selectivity for FIH inhibition over JMJD5 inhibition (FIH [1]; as judged by IC50 values): ~25 fold; selectivity for FIH inhibition over PHD2 inhibition (FIH [1]; as judged by IC50 values): ~25 fold
